Drawing on publication PMC2880193 (Archives of biochemistry and biophysics, 2010), this text covers Ki for one molecule.

The assay concerns the target T1, Put1p (Put1pΔ18) (Saccharomyces cerevisiae, UniProt P09368).
T1 sequence (P09368 19-476): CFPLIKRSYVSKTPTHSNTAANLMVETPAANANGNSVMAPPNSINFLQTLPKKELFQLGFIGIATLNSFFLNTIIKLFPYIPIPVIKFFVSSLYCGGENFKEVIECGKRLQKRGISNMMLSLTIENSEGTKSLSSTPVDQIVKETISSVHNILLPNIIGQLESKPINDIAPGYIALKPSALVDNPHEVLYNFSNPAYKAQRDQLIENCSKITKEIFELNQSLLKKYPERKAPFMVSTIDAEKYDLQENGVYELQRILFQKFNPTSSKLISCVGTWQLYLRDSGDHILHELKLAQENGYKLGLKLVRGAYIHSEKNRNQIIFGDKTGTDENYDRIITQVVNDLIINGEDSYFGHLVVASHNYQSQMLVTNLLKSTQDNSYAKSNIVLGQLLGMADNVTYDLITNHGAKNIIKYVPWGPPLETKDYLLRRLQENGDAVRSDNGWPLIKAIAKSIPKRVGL
Nature of the assay: proline:DCPIP assay, Lineweaver-Burk plot. The assay is classed as biochemical.

The molecule `O=C(O)[C@@H]1CCCO1` [L-THFA] yielded a Ki of 5.3 mM.
